# Patent publication US20100029604A1, “ANTIBACTERIAL COMBINATION AND ITS USE” (priority 2007, published 2010)
# Where two headings read alike, the source gives them in different places.
# Experiments:
# Format in all cases: cell-based
# E. coli TEM-1 = settings: TEM-1, class A, inhibitor constant 4 μg/mL
# E. coli TEM-2 = settings: TEM-2, class A, inhibitor constant 4 μg/mL
# K. pneumoniae SHV-18 = assay: Synergy MIC, inhibitor at 4 μg/mL (Example 4); settings: SHV-18, class A, inhibitor constant 4 μg/mL
# E. coli SHV-3 = assay: Synergy MIC, inhibitor at 4 μg/mL (Example 4); settings: SHV-3, class A, inhibitor constant 4 μg/mL
# Escherichia coli SHV-2 = assay: MIC, characterised β-lactamase producing strain (Example 5, Tables 5-7)
# Protocol: (§1) The MIC experiments were performed in duplicate in 96-well microtiter plates using CAMHB. […] The bacterial suspension with final inoculum 10^5 CFU/mL was transferred to the test medium containing the antibacterial substances. In each well of a 96-well microtiter plate was combined 50 μL of bacterial inoculum, 50 μL of antibiotic dilutions (or media for determination of the MIC of the antibiotic in the absence of test compound). Each plate included 4 wells with no bacterial inoculum (negative control) and 4 wells with no test compound and no antibiotic (positive control). The plates were incubated at 35° C. for 24 h. Purity check and colony counts on each inoculum suspension was performed to ensure that the final inoculum concentration routinely obtained closely approximates 5×10^5 CFU/mL. In addition the assay is routinely monitored by testing standard antibiotics and ensuring that MIC values are within the recommended ranges for the respective strains.
# (§2) This test permits comparisons to be made between bacterial growth in the presence of antibiotic alone and bacterial growth in the presence of both an antibiotic and a novel (test) compound.
# Escherichia coli TEM-20 = assay: as above
# Protocol: as §1, §2
# Escherichia coli TEM-50 = assay: as above
# Protocol: as §1, §2
# Escherichia coli TEM-5 = assay: as above
# Protocol: as §1, §2
# Escherichia coli TEM-6 = assay: as above
# Protocol: as §1, §2
# Escherichia coli TEM-7 = assay: as above
# Protocol: as §1, §2
# [1] = tested on: Klebsiella pneumoniae LAT-1; assay: as above
# Protocol: as §1, §2
# [2] = tested on: Klebsiella pneumoniae TEM-1, SHV; assay: as above
# Protocol: as §1, §2
# [3] = tested on: Klebsiella pneumoniae TEM-31; assay: as above
# Protocol: as §1, §2
# Proteus mirabilis TEM-52 = assay: as above
# Protocol: as §1, §2
# [4] = tested on: Pseudomonas aeruginosa LCR-1; assay: as above
# Protocol: as §1, §2
# [5] = tested on: Pseudomonas aeruginosa OXA-10; assay: as above
# Protocol: as §1, §2
# [6] = tested on: Pseudomonas aeruginosa PSE-1; assay: as above
# Protocol: as §1, §2
# Escherichia coli HMS-1 = assay: as above
# Protocol: (§3) The MIC experiments were performed in duplicate in 96-well microtiter plates using CAMHB. Serial twofold dilutions of each antibiotic either alone or in combination with constant concentration ratio of a β-lactamase inhibitor (2:1) were prepared in CAMHB. The bacterial suspension with final inoculum 10^5 CFU/mL was transferred to the test medium containing the antibacterial substances. In each well of a 96-well microtiter plate was combined 50 μL of bacterial inoculum, 50 μL of antibiotic dilutions (or media for determination of the MIC of the antibiotic in the absence of test compound). Each plate included 4 wells with no bacterial inoculum (negative control) and 4 wells with no test compound and no antibiotic (positive control). The plates were incubated at 35° C. for 24 h. Purity check and colony counts on each inoculum suspension was performed to ensure that the final inoculum concentration routinely obtained closely approximates 5×10^5 CFU/mL. In addition the assay is routinely monitored by testing standard antibiotics and ensuring that MIC values are within the recommended ranges for the respective strains.
# as §2
# Escherichia coli OXA-2 = assay: as above
# Protocol: as §3, §2
# Escherichia coli OXA-5 = assay: as above
# Protocol: as §3, §2
# Escherichia coli TEM-2 = assay: as above
# Protocol: as §3, §2
# Escherichia coli TEM-31 = assay: as above
# Protocol: as §3, §2
# Escherichia coli TEM-3 = assay: as above
# Protocol: as §3, §2
# [7] = tested on: Pseudomonas aeruginosa CARB-3; assay: as above
# Protocol: as §3, §2
# Escherichia coli TEM-1 = tested on: Escherichia coli TEM-1
# Protocol: as §3, §2
compound,measurement,setting,value
CO/N=C(\C(=O)N[C@@H]1C(=O)N2C(C(=O)[O-])=C(C[N+]3(C)CCCC3)CS[C@H]12)c1csc(N)n1 [cefepime],MIC,E. coli TEM-1,12.8 µg/mL
same,MIC,E. coli TEM-2,≦0.025
same,MIC,K. pneumoniae SHV-18,0.8 µg/mL
same,MIC,E. coli SHV-3,0.4 µg/mL
same,MIC,"Escherichia coli SHV-2; Escherichia coli SHV-2, functional group 2be, LK-157 in combination constant 4 μg/mL",2 µg/mL
same,MIC,"Escherichia coli TEM-20; Escherichia coli TEM-20, functional group 2be, LK-157 in combination constant 4 μg/mL",4 µg/mL
same,MIC,"Escherichia coli TEM-50; Escherichia coli TEM-50, functional group 2be, LK-157 in combination constant 4 μg/mL",32 µg/mL
same,MIC,"Escherichia coli TEM-5; Escherichia coli TEM-5, functional group 2be, LK-157 in combination constant 4 μg/mL",0.5 µg/mL
same,MIC,"Escherichia coli TEM-6; Escherichia coli TEM-6, functional group 2be, LK-157 in combination constant 4 μg/mL",4 µg/mL
same,MIC,"Escherichia coli TEM-7; Escherichia coli TEM-7, functional group 2be, LK-157 in combination constant 4 μg/mL",16 µg/mL
same,MIC,"[1]; Klebsiella pneumoniae LAT-1, functional group 1, LK-157 in combination constant 4 μg/mL",0.125 µg/mL
same,MIC,"[2]; functional group 2b, unknown, LK-157 in combination constant 4 μg/mL",4 µg/mL
same,MIC,"[3]; Klebsiella pneumoniae TEM-31, functional group 2br, LK-157 in combination constant 4 μg/mL",0.125 µg/mL
same,MIC,"Proteus mirabilis TEM-52; Proteus mirabilis TEM-52, functional group 2be, LK-157 in combination constant 4 μg/mL",16 µg/mL
same,MIC,"[4]; Pseudomonas aeruginosa LCR-1, functional group 2d, LK-157 in combination constant 4 μg/mL",128 µg/mL
same,MIC,"[5]; Pseudomonas aeruginosa OXA-10, functional group 2d, LK-157 in combination constant 4 μg/mL",64 µg/mL
same,MIC,"[6]; Pseudomonas aeruginosa PSE-1, functional group 2c, LK-157 in combination constant 4 μg/mL",32 µg/mL
same,MIC,"Escherichia coli HMS-1; Escherichia coli HMS-1, functional group 2b, LK-157 in combination constant 4 μg/mL",0.125 µg/mL
same,MIC,"Escherichia coli OXA-2; Escherichia coli OXA-2, functional group 2d, LK-157 in combination constant 4 μg/mL",0.125 µg/mL
same,MIC,"Escherichia coli OXA-5; Escherichia coli OXA-5, functional group 2d, LK-157 in combination constant 4 μg/mL",0.125 µg/mL
same,MIC,"Escherichia coli TEM-2; Escherichia coli TEM-2, functional group 2b, LK-157 in combination constant 4 μg/mL",0.25 µg/mL
same,MIC,"Escherichia coli TEM-31; Escherichia coli TEM-31, functional group 2br, LK-157 in combination constant 4 μg/mL",0.125 µg/mL
same,MIC,"Escherichia coli TEM-3; Escherichia coli TEM-3, functional group 2be, LK-157 in combination constant 4 μg/mL",4 µg/mL
same,MIC,"[7]; Pseudomonas aeruginosa CARB-3, functional group 2c, LK-157 in combination constant 4 μg/mL",16 µg/mL
same,MIC,"Escherichia coli TEM-1; Escherichia coli TEM-1, functional group 2b, LK-157 in combination constant 4 μg/mL",0.125 µg/mL
CC(C)(O/N=C(\C(=O)N[C@@H]1C(=O)N2C(C(=O)[O-])=C(C[n+]3ccccc3)CS[C@H]12)c1csc(N)n1)C(=O)O [ceftazidime],MIC,E. coli TEM-1,3.2 µg/mL
same,MIC,E. coli TEM-2,1.6 µg/mL
same,MIC,K. pneumoniae SHV-18,25.6 µg/mL
same,MIC,E. coli SHV-3,0.8 µg/mL
same,MIC,"Escherichia coli SHV-2; Table 7, Escherichia coli SHV-2, combination at constant concentration ratio (2:1)",2 µg/mL
same,MIC,"Escherichia coli TEM-20; Table 7, Escherichia coli TEM-20, combination at constant concentration ratio (2:1)",2 µg/mL
same,MIC,"Escherichia coli TEM-50; Table 7, Escherichia coli TEM-50, combination at constant concentration ratio (2:1)",8 µg/mL
same,MIC,"Escherichia coli TEM-5; Table 7, Escherichia coli TEM-5, combination at constant concentration ratio (2:1)",4 µg/mL
same,MIC,"Escherichia coli TEM-6; Table 7, Escherichia coli TEM-6, combination at constant concentration ratio (2:1)",≧128 μg/mL
same,MIC,"Escherichia coli TEM-7; Table 7, Escherichia coli TEM-7, combination at constant concentration ratio (2:1)",32 µg/mL
same,MIC,"[1]; Table 7, Klebsiella pneumoniae LAT-1, combination at constant concentration ratio (2:1)",8 µg/mL
same,MIC,"[2]; Table 7, combination at constant concentration ratio (2:1)",8 µg/mL
same,MIC,"[3]; Table 7, Klebsiella pneumoniae TEM-31, combination at constant concentration ratio (2:1)",0.25 µg/mL
same,MIC,"Proteus mirabilis TEM-52; Table 7, Proteus mirabilis TEM-52, combination at constant concentration ratio (2:1)",4 µg/mL
same,MIC,"[4]; Table 7, Pseudomonas aeruginosa LCR-1, combination at constant concentration ratio (2:1)",4 µg/mL
same,MIC,"[5]; Table 7, Pseudomonas aeruginosa OXA-10, combination at constant concentration ratio (2:1)",4 µg/mL
same,MIC,"[6]; Table 7, Pseudomonas aeruginosa PSE-1, combination at constant concentration ratio (2:1)",2 µg/mL
same,MIC,"Escherichia coli HMS-1; Table 7, Escherichia coli HMS-1, combination at constant concentration ratio (2:1)",0.25 µg/mL
same,MIC,"Escherichia coli OXA-2; Table 7, Escherichia coli OXA-2, combination at constant concentration ratio (2:1)",1 µg/mL
same,MIC,"Escherichia coli OXA-5; Table 7, Escherichia coli OXA-5, combination at constant concentration ratio (2:1)",0.5 µg/mL
same,MIC,"Escherichia coli TEM-2; Table 7, Escherichia coli TEM-2, combination at constant concentration ratio (2:1)",0.5 µg/mL
same,MIC,"Escherichia coli TEM-31; Table 7, Escherichia coli TEM-31, combination at constant concentration ratio (2:1)",0.25 µg/mL
same,MIC,"Escherichia coli TEM-3; Table 7, Escherichia coli TEM-3, combination at constant concentration ratio (2:1)",32 µg/mL
same,MIC,"[7]; Table 7, Pseudomonas aeruginosa CARB-3, combination at constant concentration ratio (2:1)",2 µg/mL
same,MIC,"Escherichia coli TEM-1; Table 7, Escherichia coli TEM-1, combination at constant concentration ratio (2:1)",0.25 µg/mL
